Measurements taken from US9149038B2, “4-amino-6-(heterocyclic)picolinates and 6-amino-2-(heterocyclic)pyrimidine-4-carboxylates and their use as herbicides” (Dow AgroSciences LLC, priority 2013, dated 2015).
Where two headings read alike, the source gives them in different places.

Experiments:
[1] = tested on: Key Broadleaf Weed and Crop Species; experiment: Post-Emergent Test II: postemergent herbicidal activity, visual rating after 14 d (Table 7); format: in vivo; conditions: post-emergence, 336 h; for pest or weed control at 35 g/ha: 35 g ai/ha; for pest or weed control at 70 g/ha: 70 g ai/ha; for pest or weed control at 140 g/ha: 140 g ai/ha
How it was run: (§1)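 Scoring is visual, 0-100, at 14 d after application, comparing treated with untreated plants. Application: overhead track spray at 187 L/ha onto seedlings at 1-2 true leaves, in surfactant/crop-oil carrier.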

[2] = tested on: Key Grass and Sedge Weeds as well as Grass Crops; experiment: Post-Emergent Test II: postemergent herbicidal activity, visual rating after 14 d (Table 8); format: in vivo; conditions: post-emergence, 336 h; for pest or weed control at 35 g/ha: 35 g ai/ha; for pest or weed control at 70 g/ha: 70 g ai/ha; for pest or weed control at 140 g/ha: 140 g ai/ha
How it was run: as §1

[3] = lambsquarters (Chenopodium album), read-out: Visual Growth Reduction (%) 14 Days After Application CHEAL
[4] = oilseed rape, canola (Brassica napus), read-out: Visual Growth Reduction (%) 14 Days After Application BRSNN
[5] = redroot pigweed (Amaranthus retroflexus), read-out: Visual Growth Reduction (%) 14 Days After Application AMARE
[6] = sunflower (Helianthus annuus), read-out: Visual Growth Reduction (%) 14 Days After Application HELAN
[7] = velvetleaf (Abutilon theophrasti), read-out: Visual Growth Reduction (%) 14 Days After Application ABUTH
[8] = wild poinsettia (Euphorbia heterophylla), read-out: Visual Growth Reduction (%) 14 Days After Application EPHHL
[9] = barnyardgrass (Echinochloa crus-galli), read-out: Visual Growth Reduction (%) 14 Days After Application ECHCG
[10] = giant foxtail (Setaria faberi), read-out: Visual Growth Reduction (%) 14 Days After Application SETFA
[11] = maize, corn (Zea mays), read-out: Visual Growth Reduction (%) 14 Days After Application ZEAMX
[12] = rice (Oryza sativa), read-out: Visual Growth Reduction (%) 14 Days After Application ORYSA
[13] = wheat, spring (Triticum aestivum), read-out: Visual Growth Reduction (%) 14 Days After Application TRZAS
[14] = yellow nutsedge (Cyperus esculentus), read-out: Visual Growth Reduction (%) 14 Days After Application CYPES

| Compound | pest or weed control at 35 g/ha [1, 3] [%] | pest or weed control at 70 g/ha [1, 3] [%] | pest or weed control at 140 g/ha [1, 3] [%] | pest or weed control at 35 g/ha [1, 4] [%] | pest or weed control at 70 g/ha [1, 4] [%] | pest or weed control at 140 g/ha [1, 4] [%] | pest or weed control at 35 g/ha [1, 5] [%] | pest or weed control at 70 g/ha [1, 5] [%] | pest or weed control at 140 g/ha [1, 5] [%] | pest or weed control at 35 g/ha [1, 6] [%] | pest or weed control at 70 g/ha [1, 6] [%] | pest or weed control at 140 g/ha [1, 6] [%] | pest or weed control at 35 g/ha [1, 7] [%] | pest or weed control at 70 g/ha [1, 7] [%] | pest or weed control at 140 g/ha [1, 7] [%] | pest or weed control at 35 g/ha [1, 8] [%] | pest or weed control at 70 g/ha [1, 8] [%] | pest or weed control at 140 g/ha [1, 8] [%] | pest or weed control at 35 g/ha [2, 9] [%] | pest or weed control at 70 g/ha [2, 9] [%] | other results |
| --- | --- | --- | --- | --- | --- | --- | --- | --- | --- | --- | --- | --- | --- | --- | --- | --- | --- | --- | --- | --- | --- |
| COC(=O)c1nc(-c2ccc(I)c3c2OC(F)(F)O3)c(F)c(N)c1Cl [Compound 79, Methyl 4-amino-3-chloro-6-(2,2-difluoro-7-iodobenzo-[d][1,3]dioxol-4-yl)-5-fluoropicolinate] | 85 to 94 | 85 to 94 | 85 to 94 | 60 to 74 | 60 to 74 | 60 to 74 | 95 to 100 | 95 to 100 | 95 to 100 | 85 to 94 | 85 to 94 | 85 to 94 | 60 to 74 | 75 to 84 | 75 to 84 | 0 to 29 | 0 to 29 | 0 to 29 | 0 to 29 | 0 to 29 | pest or weed control at 140 g/ha [2, 9]: 0 to 29%; pest or weed control at 35 g/ha [2, 10]: 0 to 29%; pest or weed control at 70 g/ha [2, 10]: 0 to 29%; pest or weed control at 140 g/ha [2, 10]: 0 to 29%; pest or weed control at 35 g/ha [2, 11]: 0 to 29%; pest or weed control at 70 g/ha [2, 11]: 0 to 29%; pest or weed control at 140 g/ha [2, 11]: 0 to 29%; pest or weed control at 35 g/ha [2, 12]: 0 to 29%; pest or weed control at 70 g/ha [2, 12]: 0 to 29%; pest or weed control at 140 g/ha [2, 12]: 0 to 29%; pest or weed control at 35 g/ha [2, 13]: 0 to 29%; pest or weed control at 70 g/ha [2, 13]: 0 to 29%; pest or weed control at 140 g/ha [2, 13]: 0 to 29%; pest or weed control at 35 g/ha [2, 14]: 0 to 29%; pest or weed control at 70 g/ha [2, 14]: 0 to 29%; pest or weed control at 140 g/ha [2, 14]: 0 to 29% |
| COc1cc(-c2nc(C(=O)O)c(Cl)c(N)c2F)cc2c1OCO2 [Compound 15] | 0 to 29 | 45 to 59 | 75 to 84 | 0 to 29 | 0 to 29 | 0 to 29 | 0 to 29 | 0 to 29 | 45 to 59 | 0 to 29 | 0 to 29 | 0 to 29 | 0 to 29 | 0 to 29 | 0 to 29 | 0 to 29 | 0 to 29 | 0 to 29 | 0 to 29 | 0 to 29 | pest or weed control at 140 g/ha [2, 9]: 0 to 29%; pest or weed control at 35 g/ha [2, 10]: 0 to 29%; pest or weed control at 70 g/ha [2, 10]: 0 to 29%; pest or weed control at 140 g/ha [2, 10]: 0 to 29%; pest or weed control at 35 g/ha [2, 11]: 0 to 29%; pest or weed control at 70 g/ha [2, 11]: 0 to 29%; pest or weed control at 140 g/ha [2, 11]: 0 to 29%; pest or weed control at 35 g/ha [2, 12]: 0 to 29%; pest or weed control at 70 g/ha [2, 12]: 0 to 29%; pest or weed control at 140 g/ha [2, 12]: 0 to 29%; pest or weed control at 35 g/ha [2, 13]: 0 to 29%; pest or weed control at 70 g/ha [2, 13]: 0 to 29%; pest or weed control at 140 g/ha [2, 13]: 0 to 29%; pest or weed control at 35 g/ha [2, 14]: 0 to 29%; pest or weed control at 70 g/ha [2, 14]: 0 to 29%; pest or weed control at 140 g/ha [2, 14]: 0 to 29% |
| COC(=O)c1nc(-c2ccc3c(c2C)OC(F)(F)O3)cc(N)c1Cl [Compound 35] | 0 to 29 | 60 to 74 | 85 to 94 | 30 to 44 | 45 to 59 | 60 to 74 | 85 to 94 | 95 to 100 | 95 to 100 | 60 to 74 | 85 to 94 | 95 to 100 | 0 to 29 | 75 to 84 | 75 to 84 | 0 to 29 | 0 to 29 | 0 to 29 | 0 to 29 | 0 to 29 | pest or weed control at 140 g/ha [2, 9]: 0 to 29%; pest or weed control at 35 g/ha [2, 10]: 0 to 29%; pest or weed control at 70 g/ha [2, 10]: 0 to 29%; pest or weed control at 140 g/ha [2, 10]: 0 to 29%; pest or weed control at 35 g/ha [2, 11]: 0 to 29%; pest or weed control at 70 g/ha [2, 11]: 0 to 29%; pest or weed control at 140 g/ha [2, 11]: 30 to 44%; pest or weed control at 35 g/ha [2, 12]: 0 to 29%; pest or weed control at 70 g/ha [2, 12]: 0 to 29%; pest or weed control at 140 g/ha [2, 12]: 0 to 29%; pest or weed control at 35 g/ha [2, 13]: 0 to 29%; pest or weed control at 70 g/ha [2, 13]: 0 to 29%; pest or weed control at 140 g/ha [2, 13]: 0 to 29%; pest or weed control at 35 g/ha [2, 14]: 0 to 29%; pest or weed control at 70 g/ha [2, 14]: 30 to 44%; pest or weed control at 140 g/ha [2, 14]: 95 to 100% |
